# Test results as given in patent US3966978A (American Cyanamid Company, priority 1975, dated 1976).
# Values joined by “and” are separate entries in the source; they are usually repeats but may differ in a detail not shown here. Equal values may be shown once.
# What was measured:
# platelet rich plasma = experiment: Collagen-induced aggregation of platelet rich plasma from orally treated male rats; format: in vivo; details: Rattus norvegicus, po, 2 h, 100 mg./kg. orally, bled after one to two hours, collagen 500 mcg./ml., read-out: Percent Inhibition of aggregation
# Procedure: In a second test the in vivo activity of the compound was established. In this test the compound was administered orally to male rats at a concentration of 100 mg./kg. After one to two hours, the rats were bled and platelet rich plasma obtained. Collagen, at a concentration of 500 mcg./ml. was added to induce platelet aggregation and comparisons were made between control and treated samples. The percent inhibition of aggregation produced by the compound of this invention appears in Table II.
# [1] = tested on: respiratory depression associated with platelet aggregation and thrombosis induced by arachidonic acid; experiment: Respiratory depression induced by arachidonic acid in mice; format: in vivo
# Procedure: Two hours later a challenge dose of arachidonic acid was given to the mice intravenously at a concentration of 50 mg./kg. The period of respiratory distress for each animal was recorded in seconds by observation. The results appear in Table III in comparison with controls who received only starch vehicle.
# [2] = tested on: human platelet rich plasma; experiment: Collagen-induced platelet aggregation in vitro in human platelet rich plasma (method of Born and O'Brien), change in optical density; format: cell-based; details: collagen 500 mcg./ml., read-out: Percent Inhibition (of maximum aggregation response to collagen in a control sample)
# Procedure: Various concentrations of the compound were added in vitro to human platelet rich plasma. Collagen (final concentration 500 mcg./ml.) was added to induce platelet aggregation. Inhibition of platelet aggregation was determined by measuring the change in the optical density of the platelet rich plasma.
# pain = details: warm-blooded animals; U.S. Pat. No. 3,784,704; cited from earlier work
structure (smiles),measurement,setting,value
O=C(O)Cc1ccc(-c2ccccc2)cc1 [4-Biphenylacetic acid],inhibition at 100 mg/kg,platelet rich plasma,12%
same,"period of respiratory distress, Average, Treated","[1]; 100 mg./kg. orally, arachidonic acid 50 mg./kg. i.v. two hours later, average of 21 treated animals (controls 7.58 minutes)",1.93 min
same,"period of respiratory distress, Time in Seconds, Treated (individual animals)","[1]; 100 mg./kg. orally, arachidonic acid 50 mg./kg. i.v. two hours later, individual animals 1-21, one line each in order",420 s and 200 s and 30 s and 150 s and 170 s and 80 s and 195 s and 125 s and 35 s and 120 s and 25 s and 20 s and 60 s and 50 s and 90 s and 75 s and 70 s and 189 s and 100 s
same,inhibition of respiratory depression induced by arachidonic acid (in words),[1]; in vivo,inhibits the respiratory depression
same,inhibition at 25 µg/mL,[2]; concentration 25 mcg./ml.,38.6%
same,inhibition at 250 µg/mL,[2]; concentration 250 mcg./ml.,40.7%
same,amelioration of pain (in words),pain,long lasting amelioration of pain
